According to ChEMBL document CHEMBL4354823, “Discovery and in Vivo Evaluation of Macrocyclic Mcl-1 Inhibitors Featuring an α-Hydroxy Phenylacetic Acid Pharmacophore or Bioisostere” (J Med Chem, 2019):

Legend:
[1] = Clearance in CD-1 mouse at 1 mg/kg, iv; assay type: ADME, organism-based; conditions: in vivo
[2] = Unbound clearance in CD-1 mouse at 1 mg/kg, iv; assay type: ADME, organism-based; conditions: in vivo
[3] = Oral bioavailability in CD-1 mouse at 3 mg/kg; assay type: ADME, organism-based; conditions: in vivo
[4] = rat, in vivo, iv, 0.5 mg/kg
[5] = dog, in vivo, iv, 0.5 mg/kg
[6] = mouse, in vivo, po, 30 mg/kg, 6 h
[7] = mouse, in vivo, po, 60 mg/kg, 6 h
[8] = in vivo; conditions: Sprague-Dawley, rat, iv, 0.5 mg/kg
[9] = in vivo; conditions: Sprague-Dawley, rat, po, 2 mg/kg
[10] = in vivo; conditions: Sprague-Dawley, rat, iv, 0.5 mg/kg; remark: listed apart in the source
[11] = in vivo; conditions: Beagle, dog, iv, 0.5 mg/kg
[12] = in vivo; conditions: Beagle, dog, po, 2 mg/kg
[13] = in vivo; conditions: athymic nude, mouse, plasma, po, 30 mg/kg
[14] = in vivo; conditions: athymic nude, mouse, plasma, po, 60 mg/kg
[15] = physchem; conditions: simulated gastric fluid, pH 1.7
[16] = physchem; conditions: simulated gastric fluid, pH 1.7; remark: listed apart in the source
[17] = physchem; conditions: simulated intestinal fluid, pH 6.6
[18] = physchem; conditions: simulated intestinal fluid, pH 6.6; remark: listed apart in the source
[19] = in vitro; conditions: rat, liver microsomes
[20] = in vitro; conditions: human, liver microsomes
[21] = rat, in vivo, iv, 0.5 mg/kg; remark: listed apart in the source
[22] = in vitro; conditions: pig, LLC-PK1

| Structure (SMILES) | half-life [8] | bioavailability [9] | clearance [10] | microsomal CLint [19] | microsomal CLint [20] | other results |
| --- | --- | --- | --- | --- | --- | --- |
| CO[C@H]1/C=C/C[C@H](C)[C@@H](C)S(=O)(=O)NC(=O)c2ccc3c(c2)N(C[C@@H]2CC[C@H]21)C[C@@]1(CCCc2cc(Cl)ccc21)CO3 [TAPOTOCLAX] | 1090 min | 34% | 1 mL/min/kg | – | – | clearance [1]: 0.5 mL/min/kg; CL free [2]: 4 L/h/kg; bioavailability [3]: 31%; CL free [4]: 8.3 L/h/kg; CL free [5]: 1.34 L/h/kg; Cp(f) [6]: 0.368 µM; Cp(f) [7]: 0.529 µM; clearance [11]: 0.333 mL/min/kg; bioavailability [12]: 27%; concentration at 6 h [13]: 49.3 µM; concentration at 6 h [14]: 70.9 µM; remaining at 0.5 h, 1 µM [15]: 90%; remaining at 1 h, 1 µM [16]: 84%; remaining at 0.5 h, 1 µM [17]: 90%; remaining at 1 h, 1 µM [18]: 81% |
| CN1CC/C=C/[C@H](OCCOCC(F)F)[C@@H]2CC[C@H]2CN2C[C@@]3(CCCc4cc(Cl)ccc43)COc3ccc(cc32)[C@@](O)(C(=O)NS(=O)(=O)N(C)C)CC1=O | 390 min | 41% | 0.833 mL/min/kg | – | – | – |
| CN1CC/C=C/[C@H](OCCCN2CC(F)(F)C2)[C@@H]2CC[C@H]2CN2C[C@@]3(CCCc4cc(Cl)ccc43)COc3ccc(cc32)[C@@](O)(C(=O)NS(=O)(=O)N(C)C)CC1=O | 330 min | 52% | 3.33 mL/min/kg | – | – | – |
| CN(C)C(=O)CO[C@H]1/C=C/CCN(C)C(=O)C[C@](O)(C(=O)NS(=O)(=O)N(C)C)c2ccc3c(c2)N(C[C@@H]2CC[C@H]21)C[C@@]1(CCCc2cc(Cl)ccc21)CO3 | 186 min | – | 21.7 mL/min/kg | < 14 µL/min/mg | 19 µL/min/mg | – |
| COC(=O)[C@@]1(O)CC(=O)N(C)CC/C=C/[C@H](OC)[C@@H]2CC[C@H]2CN2C[C@@]3(CCCc4cc(Cl)ccc43)COc3ccc1cc32 | 150 min | 2% | 43.3 mL/min/kg | – | – | – |
| CO[C@H]1/C=C/CCN(C)C(=O)C[C@](O)(C(=O)NS(C)(=O)=O)c2ccc3c(c2)N(C[C@@H]2CC[C@H]21)C[C@@]1(CCCc2cc(Cl)ccc21)CO3 | 156 min | 8% | 26.7 mL/min/kg | – | – | – |
| CN1CC/C=C/[C@H](OCCN2CCOCC2)[C@@H]2CC[C@H]2CN2C[C@@]3(CCCc4cc(Cl)ccc43)COc3ccc(cc32)[C@@](O)(C(=O)NS(=O)(=O)N(C)C)CC1=O | 168 min | 9% | 15 mL/min/kg | < 14 µL/min/mg | 21 µL/min/mg | – |
| CN1CC/C=C/[C@H](OCCN2CCS(=O)(=O)CC2)[C@@H]2CC[C@H]2CN2C[C@@]3(CCCc4cc(Cl)ccc43)COc3ccc(cc32)[C@@](O)(C(=O)NS(=O)(=O)N(C)C)CC1=O | 132 min | 6% | 60 mL/min/kg | < 14 µL/min/mg | < 14 µL/min/mg | – |
| CO[C@H]1/C=C/CCN(C)C(=O)C[C@](O)(C(=O)O)c2ccc3c(c2)N(C[C@@H]2CC[C@H]21)C[C@@]1(CCCc2cc(Cl)ccc21)CO3 | 408 min | 0% | 23.3 to 23.8 mL/min/kg | – | – | CL [21]: 31%; remaining at 0.5 h, 1 µM [15]: 49%; remaining at 1 h, 1 µM [16]: 26%; remaining at 0.5 h, 1 µM [17]: 100%; remaining at 1 h, 1 µM [18]: 100%; Papp [22]: 4.5 ×10⁻⁶ cm/s |
| CN1CC/C=C/[C@H](OCCN2CC(F)C2)[C@@H]2CC[C@H]2CN2C[C@@]3(CCCc4cc(Cl)ccc43)COc3ccc(cc32)[C@@](O)(C(=O)NS(=O)(=O)N(C)C)CC1=O | 270 min | – | 11.7 mL/min/kg | < 14 µL/min/mg | < 14 µL/min/mg | – |
| COC1CN(CCO[C@H]2/C=C/CCN(C)C(=O)C[C@](O)(C(=O)NS(=O)(=O)N(C)C)c3ccc4c(c3)N(C[C@@H]3CC[C@H]32)C[C@@]2(CCCc3cc(Cl)ccc32)CO4)C1 | 378 min | 6% | 58.3 mL/min/kg | – | – | – |
| CN1CC/C=C/[C@H](OCCN2CCC(F)(F)CC2)[C@@H]2CC[C@H]2CN2C[C@@]3(CCCc4cc(Cl)ccc43)COc3ccc(cc32)[C@@](O)(C(=O)NS(=O)(=O)N(C)C)CC1=O | – | – | – | < 14 µL/min/mg | 43 µL/min/mg | – |
